Experimental data from ChEMBL document CHEMBL5584238, “Psammaplin A analogues with modified disulfide bond targeting histone deacetylases: Synthesis and biological evaluation” (Eur J Med Chem, 2024).
Calls of active or inactive are those of the source. The rule behind the calls is not given here.

What was measured:
[1] = test system: HCT-116; experiment: Antiproliferative activity against human HCT-116 cells incubated for 48 hrs by MTT assay; type: functional, cell-based; conditions: HCT-116, 48 h
[2] = test system: EBC-1; experiment: Antiproliferative activity against human EBC-1 cells incubated for 48 hrs by MTT assay; type: functional, cell-based; conditions: EBC-1, 48 h
[3] = test system: NCI-H1581; experiment: Antiproliferative activity against human NCI-H1581 cells incubated for 48 hrs by MTT assay; type: functional, cell-based; conditions: NCI-H1581, 48 h
[4] = target: Histone deacetylase 1 (Homo sapiens, UniProt Q13547); experiment: Inhibition of recombinant human HDAC1 using Boc-Lys(Ac)-AMC as substrate preincubated for 1 hr followed by substrate addition and measured after 2 hrs by microplate reader assay
Sequence of Histone deacetylase 1 (Q13547 whole entry): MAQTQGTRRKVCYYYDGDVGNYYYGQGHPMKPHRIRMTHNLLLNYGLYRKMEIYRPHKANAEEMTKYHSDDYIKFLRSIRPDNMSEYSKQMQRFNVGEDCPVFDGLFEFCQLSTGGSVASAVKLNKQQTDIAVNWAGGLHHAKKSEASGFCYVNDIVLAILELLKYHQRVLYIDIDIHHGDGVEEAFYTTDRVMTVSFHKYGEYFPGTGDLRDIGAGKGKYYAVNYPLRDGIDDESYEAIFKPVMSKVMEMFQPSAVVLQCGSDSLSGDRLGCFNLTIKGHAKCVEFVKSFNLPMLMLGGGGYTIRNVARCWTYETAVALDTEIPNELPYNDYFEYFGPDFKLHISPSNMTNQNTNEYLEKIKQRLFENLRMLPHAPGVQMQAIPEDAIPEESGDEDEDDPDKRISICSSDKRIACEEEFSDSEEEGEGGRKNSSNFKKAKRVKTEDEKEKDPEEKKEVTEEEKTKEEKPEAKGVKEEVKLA

[5] = target: Class 1 histone deacetylase (Homo sapiens) (UniProt Q13547+O15379+Q92769+Q9BY41); experiment: Inhibition of class 1 HDACs in human HCT-116 cells assessed as upregulation of acetylated alpha-H3 level at 1 uM incubated for 24 hrs by Western blotting analysis; type: cell-based
Sequence of Class 1 histone deacetylase (Homo sapiens) (O15379 whole entry, looked up): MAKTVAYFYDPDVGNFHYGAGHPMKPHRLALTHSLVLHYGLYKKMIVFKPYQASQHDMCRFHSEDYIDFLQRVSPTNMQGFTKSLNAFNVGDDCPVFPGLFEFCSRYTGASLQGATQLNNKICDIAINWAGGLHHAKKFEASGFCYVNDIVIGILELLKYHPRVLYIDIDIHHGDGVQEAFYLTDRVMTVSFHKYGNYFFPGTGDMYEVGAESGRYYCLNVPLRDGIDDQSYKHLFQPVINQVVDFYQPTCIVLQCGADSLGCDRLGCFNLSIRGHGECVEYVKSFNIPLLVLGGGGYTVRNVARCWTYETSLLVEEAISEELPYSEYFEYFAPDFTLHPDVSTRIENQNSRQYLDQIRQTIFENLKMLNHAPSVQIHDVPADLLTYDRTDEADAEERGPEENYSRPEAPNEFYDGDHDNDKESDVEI
Sequence of Class 1 histone deacetylase (Homo sapiens) (Q13547 whole entry, looked up): as the sequence (Q13547 whole entry) above
Sequence of Class 1 histone deacetylase (Homo sapiens) (Q92769 whole entry, looked up): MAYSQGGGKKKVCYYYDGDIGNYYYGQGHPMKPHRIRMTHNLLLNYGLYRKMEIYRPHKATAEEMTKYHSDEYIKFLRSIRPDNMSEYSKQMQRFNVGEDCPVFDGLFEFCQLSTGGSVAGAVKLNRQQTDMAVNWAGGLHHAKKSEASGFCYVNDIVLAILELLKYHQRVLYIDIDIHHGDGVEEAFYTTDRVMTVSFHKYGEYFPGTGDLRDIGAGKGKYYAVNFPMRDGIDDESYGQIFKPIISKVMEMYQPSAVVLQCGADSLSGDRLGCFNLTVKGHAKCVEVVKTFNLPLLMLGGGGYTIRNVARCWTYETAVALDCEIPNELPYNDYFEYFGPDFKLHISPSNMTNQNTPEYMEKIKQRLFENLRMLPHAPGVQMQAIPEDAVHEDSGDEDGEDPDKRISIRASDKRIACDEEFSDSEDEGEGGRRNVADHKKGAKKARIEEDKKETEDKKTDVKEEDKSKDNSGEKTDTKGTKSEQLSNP
Sequence of Class 1 histone deacetylase (Homo sapiens) (Q9BY41 whole entry, looked up): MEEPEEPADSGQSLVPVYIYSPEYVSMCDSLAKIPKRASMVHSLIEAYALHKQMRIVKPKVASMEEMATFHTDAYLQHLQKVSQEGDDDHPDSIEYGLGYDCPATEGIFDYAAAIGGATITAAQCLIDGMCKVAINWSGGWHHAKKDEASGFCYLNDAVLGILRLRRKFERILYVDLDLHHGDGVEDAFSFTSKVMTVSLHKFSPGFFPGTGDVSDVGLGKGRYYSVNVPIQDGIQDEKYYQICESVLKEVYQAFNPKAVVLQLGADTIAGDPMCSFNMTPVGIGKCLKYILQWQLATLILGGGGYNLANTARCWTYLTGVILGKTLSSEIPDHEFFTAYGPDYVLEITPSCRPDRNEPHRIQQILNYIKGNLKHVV

[6] = target: T1, Protein deacetylase HDAC6 (Homo sapiens, UniProt Q9UBN7); experiment: Inhibition of recombinant human HDAC6 using Boc-Lys(Ac)-AMC as substrate preincubated for 1 hr followed by substrate addition and measured after 2 hrs by microplate reader assay
T1 sequence (Q9UBN7 whole entry): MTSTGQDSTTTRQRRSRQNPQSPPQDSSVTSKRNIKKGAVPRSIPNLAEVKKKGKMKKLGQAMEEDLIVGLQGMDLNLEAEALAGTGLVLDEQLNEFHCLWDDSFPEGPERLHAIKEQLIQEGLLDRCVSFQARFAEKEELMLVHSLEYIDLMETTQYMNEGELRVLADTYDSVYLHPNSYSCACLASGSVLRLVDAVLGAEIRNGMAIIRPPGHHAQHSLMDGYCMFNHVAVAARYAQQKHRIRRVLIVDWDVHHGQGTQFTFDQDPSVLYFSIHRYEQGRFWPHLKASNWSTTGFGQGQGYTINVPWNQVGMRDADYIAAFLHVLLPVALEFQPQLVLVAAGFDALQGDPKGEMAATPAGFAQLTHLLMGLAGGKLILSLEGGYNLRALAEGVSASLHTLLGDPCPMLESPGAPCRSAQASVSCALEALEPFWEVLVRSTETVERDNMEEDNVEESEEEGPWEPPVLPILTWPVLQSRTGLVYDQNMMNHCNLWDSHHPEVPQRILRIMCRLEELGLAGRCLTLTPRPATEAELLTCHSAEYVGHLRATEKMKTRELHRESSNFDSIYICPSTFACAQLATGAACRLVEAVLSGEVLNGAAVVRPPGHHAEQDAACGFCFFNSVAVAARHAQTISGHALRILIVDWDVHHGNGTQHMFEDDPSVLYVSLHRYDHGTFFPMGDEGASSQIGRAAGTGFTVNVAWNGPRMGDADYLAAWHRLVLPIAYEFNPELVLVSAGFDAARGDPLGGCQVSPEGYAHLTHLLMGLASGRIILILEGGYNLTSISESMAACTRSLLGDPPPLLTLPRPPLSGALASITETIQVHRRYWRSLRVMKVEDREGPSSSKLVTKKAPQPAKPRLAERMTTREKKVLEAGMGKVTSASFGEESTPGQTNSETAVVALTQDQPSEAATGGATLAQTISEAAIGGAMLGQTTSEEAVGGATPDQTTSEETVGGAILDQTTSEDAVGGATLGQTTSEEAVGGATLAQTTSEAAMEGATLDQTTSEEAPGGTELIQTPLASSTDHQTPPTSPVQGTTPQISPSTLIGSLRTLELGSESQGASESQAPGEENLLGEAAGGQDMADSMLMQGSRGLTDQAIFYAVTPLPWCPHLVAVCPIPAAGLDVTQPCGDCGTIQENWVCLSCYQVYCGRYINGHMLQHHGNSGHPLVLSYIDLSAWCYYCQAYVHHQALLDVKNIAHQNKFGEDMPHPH

[7] = target: T2, Protein deacetylase HDAC6 (Homo sapiens) (UniProt Q9UBN7); experiment: Inhibition of HDAC6 in human HCT-116 cells assessed as upregulation of acetylated alpha-tubulin level at 1 uM incubated for 24 hrs by Western blotting analysis; type: cell-based
T2 sequence (whole entry): T1 sequence (Q9UBN7 whole entry)

SMILES | IC50 [1] [µM] | IC50 [3] [µM] | IC50 [4] [µM] | inhibition [5] | IC50 [6] [µM] | inhibition [7] | IC50 [2] [µM]
O=C(NC1CSSC1)/C(Cc1ccc(O)cc1)=N/O | 9.67 | > 10 |  |  |  |  | > 10
CC(C)(CNC(=O)/C(Cc1ccc(O)c(Br)c1)=N/O)SSCCNC(=O)/C(Cc1ccc(O)c(Br)c1)=N/O | 3.52 | 3.75 |  |  |  |  | > 10
O=C(NC1CC[Se]SC1)/C(Cc1ccc(Br)s1)=N/O (configuration not stated) | > 10 | 1.44 |  |  |  |  | > 10
O=C(NC1CC[Se]SC1)/C(Cc1ccc(O)cc1)=N/O (configuration not stated) | > 10 | 1.28 |  |  |  |  | > 10
O=C(NC1C[Se][Se]C1)/C(Cc1ccc(O)c(Br)c1)=N/O | > 10 | > 10 |  |  |  |  | > 10
O=C(NC1CS[Se]C1)/C(Cc1ccc(O)cc1)=N/O (configuration not stated) | 3.3 | 0.84 |  |  |  |  | 3.47
O=C(NC1CSSC1)/C(Cc1cccc(F)c1)=N/O | > 10 | > 10 |  |  |  |  | > 10
O=C(NC1CCS[Se]C1)/C(Cc1ccc(Cl)s1)=N/O (configuration not stated) | > 10 | 2.46 |  |  |  |  | > 10
O=C(NC1CC[Se][Se]C1)/C(Cc1ccc(O)cc1)=N/O (configuration not stated) | > 10 | > 10 |  |  |  |  | > 10
O=C(NC1CC[Se]SC1)/C(Cc1ccc(Cl)s1)=N/O (configuration not stated) | > 10 | 1.1 |  |  |  |  | > 10
O=C(NCCSSCCNC(=O)/C(Cc1ccsc1)=N/O)/C(Cc1ccsc1)=N/O | 8.97 | > 10 |  |  |  |  | > 10
O=C(NCCSSCCNC(=O)/C(Cc1ccco1)=N/O)/C(Cc1ccco1)=N/O | > 10 | > 10 |  |  |  |  | > 10
O=C(NCCSSCCNC(=O)/C(Cc1ccc(Br)s1)=N/O)/C(Cc1ccc(Br)s1)=N/O | 2.22 | 4.17 |  |  |  |  | > 10
O=C(NC1CS[Se]C1)/C(Cc1ccc(O)c(Br)c1)=N/O (configuration not stated) | 1.53 | 0.93 |  |  |  |  | 3.31
O=C(NC1CC[Se][Se]C1)/C(Cc1cccc(F)c1)=N/O (configuration not stated) | > 10 | > 10 |  |  |  |  | > 10
O=C(NC1CC[Se][Se]C1)/C(Cc1ccc(O)c(Br)c1)=N/O (configuration not stated) | > 10 | > 10 |  |  |  |  | > 10
O=C(NC1C[Se][Se]C1)/C(Cc1ccc(O)cc1)=N/O | > 10 | > 10 |  |  |  |  | > 10
O=C(NC1CCS[Se]C1)/C(Cc1ccc(Br)s1)=N/O (configuration not stated) | > 10 | 3.6 |  |  |  |  | > 10
O=C(NC1CCSSC1)/C(Cc1cccc(F)c1)=N/O (configuration not stated) | > 10 | > 10 |  |  |  |  | > 10
O=C(NC1CCSSC1)/C(Cc1ccc(O)c(Br)c1)=N/O (configuration not stated) | > 10 | > 10 |  |  |  |  | > 10
O=C(NCCSSCCNC(=O)/C(Cc1cccs1)=N/O)/C(Cc1cccs1)=N/O | 4.94 | 6.16 |  |  |  |  | > 10
O=C(NC1CCS[Se]C1)/C(Cc1ccc(O)cc1)=N/O (configuration not stated) | > 10 | 2.24 |  |  |  |  | > 10
CC(C)(CNC(=O)/C(Cc1ccc(O)c(Br)c1)=N/O)SSC(C)(C)CNC(=O)/C(Cc1ccc(O)c(Br)c1)=N/O | 5.53 | > 10 |  |  |  |  | > 10

Now from value to compound, other results behind:

IC50 [1] [µM] | IC50 [3] [µM] | IC50 [4] [µM] | inhibition [5] | IC50 [6] [µM] | inhibition [7] | SMILES | IC50 [2] [µM]
6.57 |  |  |  |  |  | O=C(NCCSSCCNC(=O)/C(Cc1ccc(O)cc1)=N/O)/C(Cc1ccc(O)cc1)=N/O | 
0.5 | 0.28 |  |  |  |  | O=C(NCC[Se][Se]CCNC(=O)/C(Cc1ccc(Cl)s1)=N/O)/C(Cc1ccc(Cl)s1)=N/O | 1.36
6.9 | > 10 |  |  |  |  | Cc1ccc(C/C(=N\O)C(=O)NCCSSCCNC(=O)/C(Cc2ccc(C)o2)=N/O)o1 | > 10
0.41 | 0.3 | 0.57 | Active | 3.6 | Active | O=C(NCC[Se][Se]CCNC(=O)/C(Cc1ccc(Br)s1)=N/O)/C(Cc1ccc(Br)s1)=N/O | 0.72
> 10 | > 10 |  |  |  |  | N#Cc1ccc(COc2ccc(C/C(=N\O)C(=O)NC3CSSC3)cc2)cc1 | > 10
6.02 | > 10 |  |  |  |  | O=C(NC1CSSC1)/C(Cc1ccc(O)c(Br)c1)=N/O | > 10
0.19 | 0.16 |  |  |  |  | O=C(NCC[Se][Se]CCNC(=O)/C(Cc1cccs1)=N/O)/C(Cc1cccs1)=N/O | 1.13
5.48 | 4.02 |  |  |  |  | O=C(NCCSSCCNC(=O)/C(Cc1ccc(Cl)s1)=N/O)/C(Cc1ccc(Cl)s1)=N/O | > 10
1.74 | > 10 |  |  |  |  | O=C(NCCSSCCNC(=O)/C(Cc1ccc(Br)o1)=N/O)/C(Cc1ccc(Br)o1)=N/O | > 10
> 10 | > 10 |  |  |  |  | O=C(NCCSSCCNC(=O)/C(Cc1ccc[nH]1)=N/O)/C(Cc1ccc[nH]1)=N/O | > 10
0.41 | 0.3 |  |  |  |  | O=C(NCC[Se][Se]CCNC(=O)/C(Cc1ccco1)=N/O)/C(Cc1ccco1)=N/O | 0.45
> 10 | > 10 |  |  |  |  | O=C(NC1CCSSC1)/C(Cc1ccc(O)cc1)=N/O (configuration not stated) | > 10
